Where a name gives a salt, the structure may show the parent alone.
Tests used:
Type in all cases: in vivo
[1] = system: two spotted spider mite (Tetranychus urticae); assay: Activity against two spotted spider mite (TSSM), sprayed infested squash plants; conditions: RATE 400 (ppm), three days after treatment, 4320 min
Experimental: (§1) In conducting evaluations of insecticidal activity, each test compound was formulated as a 400 ppm solution, and this solution was then diluted with water to give lesser concentrations. The 400 ppm solution was prepared by combining 19.2 mL of .05% solution of Tween 20 (polyoxyethylene (20) sorbitan monolaurate) in water with a solution of 8 mg of the compound in .8 mL of acetone/EtOH (9/1).
Activity against cotton aphid (Aphis gossypii) and two spotted spider mite (Tetranychus urticae) was evaluated as follows. Golden crookneck squash plants were grown to the expanded cotyledon stage (about 6 to 8 days). The plants were infested with cotton aphids and two spotted spider mites 16 to 24 hours before application of the test material by transfer of infested foliage cut from a stock colony. Immediately prior to spray application of the test material the transfer foliage is removed from the squash plants. The test is run using concentrations of 400 ppm and 50 ppm. The plants are sprayed with test solution using an atomizing sprayer at 17 psi. Both surfaces of the leaves are covered until runoff, and then allowed to dry. Activity of each compound was determined three days after treatment. Activity was rated as a percent based on the mites/aphids present in plants sprayed with solvent alone.

[2] = system: tobacco budworm (Heliothis virescens); assay: Activity against tobacco budworm (TBW), sprayed diet cups with eggs; conditions: for mortality at 400 µg/mL: Heliothis virescens, 144 h
Experimental: as §1
Activity against tobacco budworm (Heliothis virescens) was evaluated as follows. A general purpose lepidoptera artificial diet was diluted to half strength with a 5% non nutritive agar. 8 mL of this diet material was dispensed into each one ounce diet cup. One hour prior to treatment 18 to 20 eggs were dispensed onto the diet surface. The cups were then sprayed with formulated material through a flat-fan nozzle. […] Treated cups were air dried prior to sealing with plastic caps. The cups were held for 6 days at room temperature. Activity was then rated based on the total number of live and dead larvae, and on the size of live larvae.

[3] = system: Stomoxys calcitrans (stable fly); assay: Adult stable fly test, serum-saturated dental wick; conditions: readings at 24 and 48 hours, which one is reported is not stated; for Percentage of ASF killed at 100 ppm: 100 ppm in bovine serum; for Percentage of ASF killed at 10 ppm: 10 ppm in bovine serum
Experimental: (§2) The compound to be evaluated was dissolved in 1 part acetone/1 part ethanol to provide a stock solution of the compound at a concentration of 5,000 ppm; this solution was shaken for 15 minutes on a sonicator. Portions of the stock solution were placed in 15 ml test tubes, and portions of bovine serum were added to provide the desired dilution of the test compound. A dental wick was placed in each test tube and the serum allowed to saturate the wick.
For the adult stable fly test, the saturated wick was placed on a filter paper in a petri dish, and approximately 10 chilled live, hungry stable flies were placed on the center of the dish bottom. The dish was covered and allowed to incubate at 27°C and 60% relative humidity for 48 hours. Mortality readings were made at each of 24 and 48 hours, and adjusted for any mortality in the vehicle control to determine percent efficacy against adult stable fly.

[4] = system: Phormia regina (blow fly); assay: Blow fly larvae test, serum-saturated dental wick; conditions: 10 ppm in bovine serum, 24 and 48 hours, which one is reported is not stated
Experimental: as §2
For the blow fly test, approximately 20 blow fly larvae were placed onto the top center of the saturated dental wick, and the test tube was plugged with cotton and incubated at 27°C and 70% humidity for 24 and 48 hours. Larval mortality counts were then made, and adjusted for any mortality in the vehicle control, to determine percent efficacy against blow fly.

[5] = RATE 64 (unit not given), 8640 min

Row | Compound | % MORTALITY [1] [%] | % MORTALITY ([2]; RATE 400 (ppm), 6 days) [%] | Percentage of ASF killed at 100 ppm [3] [%] | also measured
1 | 5,6-Dihydro Derivative of Compound 9-O-(2,3,4-Tri-O-ethyl-α-L-rhamnosyl) Spinosyn A 9-Psa [Example A1] | 100 | 100 |  | 
2 | CCOC1C(OC)C(C)OC(OC2CC3CCC4C5CC(=O)OC(CC)CCCC(OC6CCC(N(C)C)C(C)O6)C(C)C(=O)C5=CC4C3C2)C1OC (stereo not shown) [Example A3, 5,6-Dihydro-3'-O-ethyl Spinosyn J] | 100 | 100 |  | 
3 | CCCOC1C(OC)C(C)OC(OC2CC3CCC4C5CC(=O)OC(CC)CCCC(OC6CCC(N(C)C)C(C)O6)C(C)C(=O)C5=CC4C3C2)C1OC (stereo not shown) [Example A4, 5,6-Dihydro-3'-O-n-propyl Spinosyn J] | 100 | 100 |  | 
4 | CCCOC1C(OC)C(C)OC(OC2CC3CCC4C5CC(=O)OC(CC)CCCC(OC6CCC(N(C)C)C(C)O6)C(C)C(=O)C5=CC4C3C2)C1OC.CCCOC1C(OC)C(C)OC(OC2CC3CCC4C5CC(=O)OC(CC)CCCC(OC6CCC(N(C)C)C(C)O6)C(C)C(=O)C5=CC4C3C2)C1OC.O=C(O)CCCC(=O)O (stereo not shown) [Example A6, 5,6-Dihydro-3'-O-n-propyl Spinosyn J Hemiglutarate salt] | 100 | 100 | 100 | 
5 | CCOC1C(OC2CC3CCC4C5CC(=O)OC(CC)CCCC(OC6CCC(N(C)C)C(C)O6)C(C)C(=O)C5=CC4C3C2)OC(C)C(OC)C1OC (stereo not shown) [Example A7, 5,6-Dihydro-2'-O-ethyl Spinosyn H] | 100 | 100 | 100 | 
6 | CCCOC1C(OC2CC3CCC4C5CC(=O)OC(CC)CCCC(OC6CCC(N(C)C)C(C)O6)C(C)C(=O)C5=CC4C3C2)OC(C)C(OC)C1OC (stereo not shown) [Example A8, 5,6-Dihydro-2'-O-n-propyl Spinosyn H] | 100 | 100 | 100 | 
7 | CC[C@H]1CCC[C@H](O[C@H]2CC[C@H](N(C)C)[C@@H](C)O2)[C@@H](C)C(=O)[C@H]2C[C@@H]3[C@@H](CC[C@@H]4C[C@@H](O[C@@H]5O[C@@H](C)[C@H](OC)[C@@H](OC)[C@H]5OC)C[C@H]43)[C@@H]2CC(=O)O1 [Example D1, (14S)-5,6,13,14-Tetrahydro Spinosyn A] |  |  |  | Percentage of LBF killed at 10 ppm [4]: <50%; Percentage of ASF killed at 10 ppm [3]: 100%; % MORTALITY ([2]; RATE 80 (unit not given), 8640 min): 90%
8 | CCC1CCCC(OC2CCC(N(C)C)C(C)O2)C(C)C(=O)[C@H]2CC3C4CC(OC5OC(C)C(OC)CC5OC)CC4CCC3C2CC(=O)O1 (stereo partly drawn) [Example D3, (14S)-5,6,13,14-Tetrahydro-3'-deoxy Spinosyn J] |  |  | 100 | % MORTALITY [2, 5]: 95%
9 | CCC1CCCC(OC2CCC(N(C)C)C(C)O2)C(C)C(=O)C2=CC3C4CC(OC5OC(C)C(OC)C(OC)C5OC)CC4[C@@H](Br)[C@H](OCCO)C3C2CC(=O)O1 (stereo partly drawn) [Example F1, (5R,6R)-5-(2-Hydroxyethoxy)-6-bromo Spinosyn A] |  | 100 |  | Percentage of LBF killed at 10 ppm [4]: 90%; Percentage of ASF killed at 10 ppm [3]: 60%
10 | CC[C@H]1CCC[C@H](O[C@H]2CC[C@H](N(C)C)[C@@H](C)O2)[C@@H](C)C(=O)C2=C[C@H]3[C@@H]4C[C@H](O[C@@H]5O[C@@H](C)[C@H](OC)[C@@H](OC)[C@H]5OC)C[C@H]4[C@@H](O)[C@@H](O)[C@H]3[C@@H]2CC(=O)O1 [Example F2, (5S,6R)-5,6-Dihydroxy-5,6-dihydro Spinosyn A] |  |  |  | Percentage of LBF killed at 10 ppm [4]: <50%; Percentage of ASF killed at 10 ppm [3]: <50%; mortality at 400 µg/mL ([2]; RATE 400 (ppm), 6 days): 100%
11 | CC[C@H]1CCC[C@H](O[C@H]2CC[C@H](N(C)C)[C@@H](C)O2)[C@@H](C)C(=O)C2=C[C@H]3[C@@H]4C[C@H](O[C@@H]5O[C@@H](C)[C@H](OC)[C@@H](OC)[C@H]5OC)C[C@H]4[C@H]4OC(=O)O[C@H]4[C@H]3[C@@H]2CC(=O)O1 [Example F3, (5S,6R)-Spinosyn A carbonate] |  |  |  | Percentage of LBF killed at 10 ppm [4]: <50%; Percentage of ASF killed at 10 ppm [3]: <50%; % MORTALITY [2, 5]: 24%
12 | CC[C@H]1CCC[C@H](O[C@H]2CC[C@H](N(C)C)[C@@H](C)O2)[C@@H](C)C(=O)C2=C[C@H]3[C@@H]4C[C@H](O[C@@H]5O[C@@H](C)[C@H](OC)[C@@H](OC)[C@H]5OC)C[C@H]4[C@H](Br)[C@@H](OC(C)=O)[C@H]3[C@@H]2CC(=O)O1 [Example F4a, (5S,6S)-5-Acetoxy-6-bromo Spinosyn A] |  |  |  | Percentage of LBF killed at 10 ppm [4]: <50%; Percentage of ASF killed at 10 ppm [3]: 90%; mortality at 400 µg/mL ([2]; RATE 400 (ppm), 6 days): 100%
13 | CCC1CCCC(OC2CCC(N(C)C)C(C)O2)C(C)C(=O)C2=CC3C4CC(OC5OC(C)C(OC)C(OC)C5OC)CC4[C@@]4(C)O[C@H]4C3C2CC(=O)O1 (stereo partly drawn) [Example F8a, (5S,6R)-Epoxy Spinosyn D] | 90 | 100 |  | 
14 | CCC1CCCC(OC2CCC(N(C)C)C(C)O2)C(C)C(=O)C2=CC3C4CC(OC5OC(C)C(OC)C(OC)C5OC)CC4[C@@H](Br)[C@H](Br)C3C2CC(=O)O1 (stereo partly drawn) [Example F14, (5R,6R)-5,6-Dibromo Spinosyn A] |  | 60 | 100 | 
15 | CCC1CCCC(OC2CCC(N(C)C)C(C)O2)C(C)C(=O)C2=CC3C4CC(OC5OC(C)C(OC)C(OC)C5OC)CC4[C@@H](SC)[C@H](OC(C)=O)C3C2CC(=O)O1 (stereo partly drawn) [Example F16, (5R,6R)-5-Acetoxy-6-thiomethoxy Spinosyn A] |  | 100 | 100 | 
16 | CCC1CCCC(OC2CCC(N(C)C)C(C)O2)C(C)C(=O)C2=CC3C4CC(OC5OC(C)C(OC)C(OC)C5OC)CC4[C@@H](S(C)(=O)=O)[C@H](OC(C)=O)C3C2CC(=O)O1 (stereo partly drawn) [Example F17, (5R,6R)-5-Acetoxy-6-methylsulfonyl Spinosyn A] |  | 100 | 100 | 
17 | CCC1CCCC(OC2CCC(N(C)C)C(C)O2)C(C)C(=O)C2=CC3C4CC(OC5OC(C)C(OC)C(OC)C5O)CC4CCC3C2CC(=O)O1 (stereo not shown) [Example F22, 5,6-Dihydro Spinosyn H] |  | 100 | 100 | 
18 | CC[C@H]1CCC[C@H](O[C@H]2CC[C@H](N(C)C)[C@@H](C)O2)[C@@H](C)C(=O)C2=C[C@H]3[C@@H]4C[C@H](O[C@@H]5O[C@@H](C)[C@H](OC)[C@@H](OC)[C@H]5OC)C[C@H]4CC[C@H]3[C@@H]2CC(=O)O1 [Example F23, 5,6-Dihydro Spinosyn A Hemiglutarate salt] | 100 | 100 | 100 | 
19 | CC[C@H]1CCC[C@H](O[C@H]2CC[C@H](NC)[C@@H](C)O2)[C@@H](C)C(=O)C2=C[C@H]3[C@@H]4C[C@H](O[C@@H]5O[C@@H](C)[C@H](OC)[C@@H](OC)[C@H]5OC)C[C@H]4CC[C@H]3[C@@H]2CC(=O)O1 [Example F24, 5,6-Dihydro Spinosyn B] | 100 | 100 | 100 | 
20 | (5R,6R)-5,6-dibromo Spinosyn B [Example F11b] |  | 100 | 100 | 
21 | (5R,6R)-6-Bromo-5-hydroxy Spinosyn J [Example F18] |  | 100 | 100 | 

From patent EP0837870B1, “SYNTHETIC MODIFICATION TO SPINOSYN COMPOUNDS” (Dow AgroSciences LLC, priority 1995, dated 1997)
